Assay: Inhibition of HBV capsid assembly infected in human HepG2(2.2.15) cells assessed as inhibition of intracellular viral DNA level after 8 days by agarose gel electrophoresis method

CC(=O)Nc1ccc(-c2cc(C)c(=O)n(Cc3ccc(Cl)cc3)n2)cc1
IC50: 1900 nM

From BindingDB's records for doi:10.1021/acs.jmedchem.6b01442 (Tsinghua University, 2017)
